Patent publication US20040192672A1, “Iodobenzopyran-4-one derivatives having fungicidal activity” (priority 2001, published 2004)

Assays:
Type in all cases: in vivo
[1] = test system: wheat powdery mildew (Blumeria graminis); assay: Field test of intensity of attack on winter wheat; details: 125 g of active ingredient/ha per application (A and B), 52 days after Application B, winter wheat field plots
Protocol: (§1) The compounds were tested for their activity against wheat powdery mildew (Blumeda graminis).
(§2) Winter wheat (Appolo variety) was planted in France (department of Marne) in 1 m^2 plots, at the rate of 200 kg/ha (soil: coloured rendzina) at a depth of 3 cm. The compounds of the invention were applied to the wheat plants in two portions: Application A at the 1 cm ear stage and then Application B at the second visible node stage. Each of these applications was carried out by spraying an aqueous solution of the compounds at a dose of 125 g of active ingredient/ha.
(§3) During Application A, the intensity of attack by the fungus Blumeria graminis is estimated at 3% of the total foliar volume.
The tests of intensity of attack are carried out 52 days after Application B by evaluating the percentage of affected surface area of the second leaves (counted from the ear).

[2] = test system: wheat powdery mildew (Blumeria graminis); assay: Field test of frequency of attack on winter wheat; details: 125 g of active ingredient/ha per application (A and B), same conditions as Table 1
Protocol: as §1, §2, §3
Under the same conditions, a test of frequency of attack was performed by evaluating the percentage of second leaf (from the ear) attacked by the fungus Blumeria graminis.

[3] = test system: powdery mildew (Blumeria graminis f. sp. tritici) strains resistant to strobilurin derivatives; assay: Greenhouse test on pathogenic strains resistant to strobilurin derivatives; details: wheat, 13 days of incubation
Protocol: This example gives an illustration of the biological efficacy of the compounds of formula (I) on pathogenic strains resistant to strobilurin derivatives.
The experiment was performed in a greenhouse.
Resistant strains were isolated and samples taken in 2001 in the north of Germany in the Bremen region in a place treated with pyraclostrobin and with picoxystrobin. These strains are characterized by their resistance to these strobilurin-type compounds. They were then kept in a controlled-environment chamber on wheat plants (Kanzler variety) treated with trifloxystrobin.
The tested compounds were sprayed on the wheat plants using solutions for application diluted in water to a volume equivalent to 250 l/ha. 24 h later, the plants were inoculated with powdery mildew (Blumeria graminis f. sp. tritici).
The extent of the disease was evaluated on each plant after 13 days of incubation.

[4] = test system: wheat powdery mildew (Blumeria graminis f. sp. tritici); assay: Greenhouse preventive synergy test, wheat powdery mildew
Protocol: (§4) This example gives an illustration of the synergistic effect obtained using the compounds according to the invention in the form of a mixture with compounds of the strobilurin type, in particular trifloxystrobin, triazole, in particular fluquinconazole. The compounds according to the invention were tested in a greenhouse under preventive conditions.
(§5) The combinations of active ingredients in Table 4 were evaluated.
(§6) The compounds and mixtures tested were sprayed on wheat plants:
(§7) volume for application equivalent to 250 l/ha.
(§8) On the day following the application, the wheat plants were inoculated with powdery mildew (Blumeria graminis f. sp. tritici), brown rust (Puccinia recondita), glume blotches (Septoria tritici and Septoria nodorum) and the barley plants with powdery mildew (Blumeria graminis f. sp. hordei). Once the diseases had developed, the evaluation was made by determining the extent of disease per pot.
(§9) The level of synergy was calculated using the Colby formula in order to calculate the theoretical efficacy and to compare it to the observed efficacy:
(§10) Theoretical efficacy of A+B=efficacy of A (%)+efficacy of B (%)−[efficacy of A (%)×efficacy of B (%)/100]

[5] = test system: barley powdery mildew (Blumeria graminis f. sp. hordei); assay: Greenhouse preventive synergy test, barley powdery mildew
Protocol: as §4, §5, §6, §7, §8, §9, §10

[6] = test system: wheat brown rust (Puccinia recondita); assay: Greenhouse preventive synergy test, wheat brown rust
Protocol: as §4, §5, §6, §7, §8, §9, §10

[7] = test system: wheat glume blotch (Septoria tritici); assay: Greenhouse preventive synergy test, wheat glume blotch (Septoria tritici)
Protocol: as §4, §5, §6, §7, §8, §9, §10

[8] = test system: wheat glume blotch (Septoria nodorum); assay: Greenhouse preventive synergy test, wheat glume blotch (Septoria nodorum)
Protocol: as §4, §5, §6, §7, §8, §9, §10

SMILES	% affected surface area per (second) leaf [1] [%]	% of second leaf attacked [2] [%]	Percentage of leaves affected by powdery mildew ([3]; 31 g/ha) [%]	Percentage of leaves affected by powdery mildew ([3]; 62 g/ha) [%]	Observed efficacy ([4]; Table 5, 6 g/ha) [%]	Observed efficacy ([4]; Table 10, 16 g/ha) [%]	Observed efficacy ([5]; Table 6, 12 g/ha) [%]	Observed efficacy ([5]; Table 11, 16 g/ha) [%]	also measured
Fc1ccc(Oc2ccnc3cc(Cl)cc(Cl)c23)cc1 [Compound B, quinoxyfen]	4.91	73.3	–	–	–	–	–	–	–
CCCCOc1oc2ccc(I)cc2c(=O)c1CCC [Compound 3, 2-butoxy-6-iodo-3-propylbenzopyran-4-one]	2.51	54.0	–	–	–	–	–	–	–
CCCc1c(OCC)oc2ccc(I)cc2c1=O [Compound 1, 2-ethoxy-6-iodo-3-propylbenzopyran-4-one]	0.56	28.0	0	0	25	50	50	50	Observed efficacy ([4]; Table 10, 6 g/ha): 25%; Observed efficacy ([4]; Table 10, 25 g/ha): 75%; Observed efficacy ([5]; Table 11, 25 g/ha): 75%; Observed efficacy ([6]; Table 7, 50 g/ha): 0%; Observed efficacy ([7]; Table 8, 50 g/ha): 0%; Observed efficacy ([8]; Table 9, 50 g/ha): 0%
O=c1c2cc(F)ccc2nc(-n2cncn2)n1-c1ccc(Cl)cc1Cl [fluquinconazole]	–	–	–	–	0	–	25	–	Observed efficacy ([4]; Table 5, 12 g/ha): 0%; Observed efficacy ([4]; Table 5, 31 g/ha): 0%; Observed efficacy ([5]; Table 6, 25 g/ha): 25%; Observed efficacy ([5]; Table 6, 62 g/ha): 75%; Observed efficacy ([6]; Table 7, 100 g/ha): 60%; Observed efficacy ([7]; Table 8, 100 g/ha): 60%; Observed efficacy ([8]; Table 9, 100 g/ha): 75%
CON=C(C(=O)OC)c1ccccc1CON=C(C)c1cccc(C(F)(F)F)c1 [Trifloxystrobin]	–	–	100	100	–	30	–	0	Percentage of leaves affected by powdery mildew ([3]; 125 g/ha): 100%; Percentage of leaves affected by powdery mildew ([3]; 250 g/ha): 100%; Observed efficacy ([4]; Table 10, 31 g/ha): 40%; Observed efficacy ([4]; Table 10, 62 g/ha): 50%; Observed efficacy ([5]; Table 11, 62 g/ha): 0%
CCCOc1oc2ccc(I)cc2c(=O)c1CCC [Compound 2, 6-iodo-2-propoxy-3-propylbenzopyran-4-one]	2.53	–	–	–	–	–	–	–	–
